From patent publication US20260142006A1, “APPARATUS AND METHODS FOR DETERMINING SENSITIVITY TO OSIMERTINIB” (Zephyr AI, Inc., priority 2022, published 2026)

Experiments:
NSCLC tumor PDX models = experiment: tumor response (mRECIST) of treatment-naïve NSCLC patient-derived xenograft (PDX) models in mice; type: in vivo; settings: 25 mg/kg/day for 3 weeks, NOD/SCID or BALB/c nude mice
Source text: FIG. 9 depicts a method for further validation of sensitivity predictions using patient-dervied xenograft (PDX) models (HuBase™, CrownBio®). Treatment naïve PDX tumors were subcutaneously implanted into female non-obese diabetic/severe combined immunodeficient (NOD/SCID) or BALB/c nude mice in triplicate for a total of 96 mice (n=48 treated; 48 vehicle-treated controls). Mice were assigned labels. After implanted tumors reached a size of 200 mm^3, mice were randomized into treatment and control groups. Treated mice were dosed with 25 mg/kg/day of osimertinib for 3 weeks. Changes in tumor volume were calculated. For each PDX model, tumor growth for treatment groups and control groups was assessed.
To validate the predictions of tumor sensitivity/insensitivity, as described above, data were acquired using treatment-naïve NSCLC tumor (patient-derived xenograft) PDX models available via HuBase™ (CrownBio®, an online database offering complete genomic annotation of the PDX models).
The current FDA label for osimertinib (FIG. 7) was used to assign PDX tumors to “FDA ON” or “FDA OFF” label groups based on the presence or absence of DNA alterations indicated for this drug (i.e., L858R mutation, T790M mutation, or exon 19 deletion). PDX tumors were also assigned label groups based on sensitivity predictions, as described above. Tumors labeled “Zephyr ON” included those that were predicted to be osimertinib-sensitive and samples labeled “Zephyr OFF” include those predicted to be osimertinib-insensitive. PDX models were then divided into four cohorts: FDA ON/ZEPHYR ON; FDA OFF/ZEPHYR ON; FDA ON/ZEPHYR OFF; and FDA OFF/ZEPHYR OFF.
Treatment naïve PDX tumors were subcutaneously implanted into female NOD/SCID or BALB/c nude mice in triplicate for a total of 96 mice (n=48 treated; 48 vehicle-treated controls). After implanted tumors reached a size of 200 mm^3, mice were randomized into treatment and control groups. Treated mice were dosed with 25 mg/kg/day of osimertinib for 3 weeks. Changes in tumor volume were calculated as previously described, e.g., in Gao et al., Nat. Med. 21, 1318-1325 (2015). For each PDX model, tumor growth for treatment groups and control groups (vehicle only) was assessed.
This final cohort represents an expansion of the patient population that can be successfully treated with osimertinib that is not captured by the existing FDA label.

cancer cell lines = experiment: area under the drug response curve (AUC) of cancer cell lines exposed to osimertinib; type: cell-based; settings: AUC of 1 = growth equal to growth without osimertinib
Source text: FIG. 4D depicts a boxplot of area under the drug response curve values for cell lines partitioned into a first group (sensitive) and the second group (non-sensitive) of cancer cell lines, by a machine learning model disclosed herein.
FIG. 4D depicts a graph of a box and whisker plot of area under the drug response curve (AUC) values for the first group (sensitive) and the second group (non-sensitive) of cancer cell lines. […] Furthermore, instead of generating the machine learning model wherein the model learns a point estimate for each of the parameters of the partitioning matrix (e.g., two or more genes), the machine learning model may be generated in a Bayesian context, wherein the machine learning model learns the posterior parameter distribution for the parameters of the partitioning matrix, the posterior parameter distribution may be approximately gaussian. For example, when the parameters of the partitioning matrix include 7 distinct genes, the machine learning model may learn the posterior parameter distribution for 8 different parameters (e.g., 7 genes plus an intercept term). In some embodiments, the posterior parameter distribution may have a confidence region of about 90%. The graphical representation of the confidence region of the posterior parameter distribution may depict ellipse enclosing a high-density region.

NSCLC = experiment: overall survival of osimertinib-treated NSCLC patients (AACR Project GENIE cohort), predicted sensitive vs. less sensitive; type: in vivo, human; settings: 334 osimertinib-treated patients
Source text: FIG. 8 depicts a Kaplan-Meier plot showing corresponding overall survival (OS) measurements of patients predicted, according to methods of the present disclosure, to be sensitive vs. insensitive to ismertinib. NSCLC patients predicted to be sensitive experienced a 35-month increased median OS than the predicted less sensitive group (log-rank test p-value<10-5; HR=1.57 (1.43-1.78, 95% CI)).
A clinicogenomics cohort from AACR Project GENIE, which included 334 patients treated with osimertinib, was used to validate the predictive ability of the methods disclosed herein. Data obtained in real-world settings were used to assign drug sensitivity predictions to individual patients in a RWD cohort of NSCLC patients treated with osimertinib. FIG. 8, a Kaplan-Meier plot, depicts overall survival (OS) measurements corresponding to patients predicted to be sensitive vs. insensitive. NSCLC patients predicted to be sensitive experienced a 35-month increased median OS than the NSCLC patients predicted to be less sensitive (log-rank test p-value<10-5; HR=1.57 (1.43-1.78, 95% CI)).

## C=CC(=O)Nc1cc(Nc2nccc(-c3cn(C)c4ccccc34)n2)c(OC)cc1N(C)CCN(C)C [osimertinib]
NSCLC tumor PDX models; FDA OFF/ZEPHYR OFF cohort
  tumor response by mRECIST: disease progression
NSCLC tumor PDX models; FDA OFF/ZEPHYR ON cohort (no on-label EGFR alteration, predicted sensitive)
  tumor response by mRECIST: partial to complete response
NSCLC tumor PDX models; FDA ON/ZEPHYR OFF cohort
  tumor response by mRECIST: a mix of complete responses and disease progression
NSCLC tumor PDX models; FDA ON/ZEPHYR ON cohort
  tumor response by mRECIST: complete response
Cancer cell lines; first group (predicted sensitive) of cancer cell lines
  average AUC (area under the drug response curve): about 0.9
Cancer cell lines; second group (predicted non-sensitive) of cancer cell lines
  average AUC (area under the drug response curve): about 0.95
NSCLC; real-world data, log-rank test p-value<10-5
  increase in median overall survival (OS), predicted sensitive vs. predicted less sensitive: 35 month
NSCLC; 95% CI in brackets
  hazard ratio (HR) for overall survival: 1.57 (1.43-1.78, 95% CI)
